From patent US20180169045A1, “AMINO ACID COMPOSITIONS AND METHODS FOR THE TREATMENT OF LIVER DISEASES” (AXCELLA HEALTH INC., priority 2016, published 2018)

Columns and labels:
[1] = test system: LX-2 hepatic stellate cells; experiment: TGFβ1-induced fibrogenic gene expression (Col1a1, Acta2, Timp2) in LX-2 cells, qRT-PCR; format: cell-based; design: key to Col1a1 gene expression, Mean: relative expression normalized to β-actin by ΔΔCt method; details: for Col1a1 gene expression, Mean: TGFβ1 Yes
[2] = test system: STAM™ mice; experiment: STAM mouse NASH model (Example 6): activated hepatic stellate cells, α-smooth muscle actin staining; format: in vivo; details: individual animals
Experimental: Amino Acid Composition A-1 and Obeticholic acid (6α-ethyl-chenodeoxycholic acid; “OCA”) were tested for their ability to treat NASH in the STAM™ model (Stelic Institute & Co., Tokyo, Japan; Saito K. et al., 2015 Sci Rep 5:12466). Two additional groups of normal C57BL/6 mice fed standard chow and vehicle treated STAM™ mice were included as controls. All animals receiving treatment or vehicle were treated starting at 6 weeks until 9 weeks of age. Compounds were administered via oral gavage, with a dose volume of 10 ml/kg. Amino Acid Composition A-1 was administered twice daily at a dose of 1500 mg/kg, and OCA was administered once daily at a dose of 30 mg/kg.
STAM™ is a model for non-alcoholic steatohepatitis (NASH) and hepatocellular carcinoma (HCC), developed by SMC Laboratories, Inc. and created by the combination of chemical and dietary interventions using C57BL/6 mice (Saito K. et al., 2015 Sci Rep 5:12466). Mice are treated with a low dose of streptozotocin at birth and fed a high fat diet starting at 4 weeks. Evidence of fatty liver is present by 5 weeks, followed by NASH by 7 weeks and fibrosis by 9 weeks. […]
Liver sections of all mice were stained for the marker α-smooth muscle actin (αSMA) to identify activated hepatic stellate cells. Images were quantified using the percent of positively stained area was used as a measure of stellate cell activation. […]

[3] = test system: FATZO mice; experiment: FATZO mouse NASH model (Example 15): liver histology (NAS, fibrosis score, Sirius Red, Oil Red O); format: in vivo; details: FATZO mice on WDF, 4 weeks
From the text: NASH was induced in 60 male FATZO mice by a western diet (Research Diet # D12079B; fat 40% kcal, protein 17% kcal, carbohydrate 43% kcal) supplemented with 5% fructose in the drinking water (WDF) during a 16 week induction phase. Diets and water were available ad libitum. Littermate control male FATZO mice fed with a control diet (n=6, Purina #5008; fat 17% kcal, protein 27% kcal, carbohydrate 56% kcal) and sterile water were set up for control purpose. Mice were housed in plastic cages with microisolator. Sterilized bedding was replaced once a week. Mice were housed three per cage and maintained on a twelve hour light cycle throughout study duration. Room temperature was monitored daily and maintained at 22-25° C. Body weight was recorded every week during the induction phase. […]
[…], […]+G, LRQNAC, OCA and Vehicle were administered by oral gavage at a volume of 10 mL/kg throughout the study. Dosages were calculated by daily body weight. […]
The livers were evaluated using the NASH liver criteria for scoring. In this mouse study, one cross section of liver for each case was analyzed with the NASH score system. […] The NAS can range from 0 to 8 and is calculated by the sum of scores of steatosis (0-3), lobular inflammation (0-3) and hepatocyte ballooning (0-2) from H&E stained sections. Fibrosis was scored (0-4) from picrosirius red stained slides. […]

[4] = individual amino acid at 1X HMDB concentration
[5] = individual amino acid at 50X HMDB concentration

| Compound | Col1a1 gene expression, Mean [1, 4] | Col1a1 gene expression, Mean [1, 5] | Col1a1 expression of individual amino acids, in words ([1]; individual amino acid at 50× HMDB derived concentration) | Activated hepatic stellate cells (mean positively stained area, α-smooth muscle actin): raw data [2] | NAFLD activity score (NAS) compared to vehicle, in words [3] |
| --- | --- | --- | --- | --- | --- |
| N=C(N)NCCC[C@H](N)C(=O)O [ARG] | 1.620 | 1.970 | – | – | – |
| N[C@@H](CS)C(=O)O [CYS] | 2.491 | 1.695 | – | – | – |
| N[C@@H](CS)C(=O)O [Cysteine, L-Cysteine] | – | – | significant decrease | – | – |
| NC(=O)CC[C@H](N)C(=O)O [GLN] | 2.340 | 2.194 | – | – | – |
| CC(C)C[C@H](N)C(=O)O [LEU] | 1.901 | 2.372 | – | – | – |
| CC[C@H]1[C@@H](O)[C@@H]2[C@H](CC[C@]3(C)[C@@H]([C@H](C)CCC(=O)O)CC[C@@H]23)[C@@]2(C)CC[C@@H](O)C[C@@H]12 [OCA, 6α-ethyl-chenodeoxycholic acid] | – | – | – | 1.5 | no significant effect |
| CC(C)[C@H](N)C(=O)O [VAL] | 2.093 | 2.203 | – | – | – |
